Measurements published in patent US8765744B2, “Azaspirohexanones” (Boehringer Ingelheim International GmbH, priority 2010, dated 2014).

Molecular target: 11β-HSD1 (Homo sapiens (Human), UniProt P28845)
Conditions: read-out: Inhibitory activity on 11β-HSD 1, IC50; human liver microsomes; 1 hour at 37° C.; NADPH 200 μM, cortisone 80 nM; HTRF cortisol detection
Experimental: The biological properties (inhibitory activity on 11β-hydroxysteroid dehydrogenase 1) of the new compounds may be investigated as follows:
Briefly, compounds are incubated for 1 hour at 37° C. in Tris buffer (20 mM tris, 5 mM EDTA, pH 6.0) containing NADPH (200 μM) and cortisone (80 nM). Cortisol generated in the reaction is then detected with a competitive immunoassay, involving two HTRF conjugates: cortisol linked to XL665 and anti-cortisol antibody labeled with Europium cryptate. The incubation period for detection reaction is typically 2 hours. […] The ratio of the two emission signals is then calculated (Em665*10000/Em615). […] Each assay also contains a calibration curve with cortisol to transform the fluorescent data into cortisol concentrations. Percent inhibition (% CTL) of each compound is determined relative to the carbenoxolone signal and IC50 curves are generated.

11β-HSD1, sequence (P28845 whole entry): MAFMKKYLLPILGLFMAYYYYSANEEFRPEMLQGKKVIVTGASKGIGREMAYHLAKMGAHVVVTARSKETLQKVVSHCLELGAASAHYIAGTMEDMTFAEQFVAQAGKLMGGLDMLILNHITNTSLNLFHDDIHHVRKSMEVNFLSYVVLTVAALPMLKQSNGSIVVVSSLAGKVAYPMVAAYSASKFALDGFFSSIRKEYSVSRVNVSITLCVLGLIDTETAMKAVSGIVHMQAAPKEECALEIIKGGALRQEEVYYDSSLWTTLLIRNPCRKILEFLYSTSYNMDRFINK

IC50 [µM] | SMILES
> 10 | C[C@@H](c1ccc(-c2ccn(C)c(=O)c2)cc1)N1CCC2(CCC3(CC2)OCC(C)(C)CO3)OC1=O [Example 16, 12,12-Dimethyl-3-{(S)-1-[4-(1-methyl-2-oxo-1,2-dihydro-pyridin-4-yl)-phenyl]-ethyl}-1,10,14-trioxa-3-aza-dispiro[5.2.5.2]hexadecan-2-one]
> 10 | C[C@@H](c1ccc(-c2ccc(C(=O)N(C)C)nc2)cc1)N1CCC2(CCC3(CC2)OCC(C)(C)CO3)OC1=O [Example 17, 5-{4-[(S)-1-(12,12-Dimethyl-2-oxo-1,10,14-trioxa-3-aza-dispiro[5.2.5.2]hexadec-3-yl)-ethyl]-phenyl}-pyridine-2-carboxylic acid dimethylamide]
